In US9745328B2, “Flap modulators” (JANSSEN PHARMACEUTICA NV, priority 2013, dated 2017):
Where a name gives a salt, the structure may show the parent alone. Read-outs that look alike come from different tables or passages of the source.

Key:
human FLAP = human FLAP (Homo sapiens (Human), UniProt P20292); assay: FLAP binding assay (HTRF format)
Method in brief: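 Binding values are averages from two separate assay plates, with each sample run in duplicate per plate. Data are expressed as an HTRF ratio.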

[1] = tested on: leukotriene pathway in human whole blood (LTB4); assay: Human whole blood assay (LTB4 levels after calcium ionophore A23187 stimulation); type: cell-based; conditions: Homo sapiens, read-out: Human Whole Blood LTB4 IC50 1:1
Experimental: The ability of the compounds of the present invention to treat a FLAP-mediated disease and/or disorder, or associated symptoms or complications thereof, was determined using the following procedures. Binding assay data represent the average value obtained from two different assay plates, with samples run in duplicate on each plate. Human whole blood assay data represent a single replicate on an assay plate using whole blood from at least one healthy donor.
An in vitro cellular assay was performed using human whole blood collected in heparin-containing tubes, which was used to test the ability of compounds to modulate the leukotriene pathway in human whole blood. The blood was diluted 1:1 in RPMI medium, pre-incubated for 15 min at 37° Celsius with test compounds at various concentrations, and then stimulated with calcium ionophore, A23187 (7 μg/mL), for 30 min at 37° Celsius. The samples were then centrifuged and plasma was removed. The plasma was diluted in assay buffer and LTB4 levels were measured using a commercial kit (Enzo Life Sciences). The concentration of each compound that was required for half-maximal inhibition (modulation) of recombinant enzyme activity (IC50) was calculated by a 4-parameter equation using the program GraphPad Prism (GraphPad software).

[2] = human FLAP wild type, Table 6 (additional runs)
[3] = human whole blood diluted 1:1, A23187 stimulation, Table 6 (additional runs)
[4] = Table 6 (additional runs), human FLAP wild type
[5] = Table 6 (additional runs), human whole blood diluted 1:1, A23187 stimulation

Chain of human FLAP (P20292 whole entry): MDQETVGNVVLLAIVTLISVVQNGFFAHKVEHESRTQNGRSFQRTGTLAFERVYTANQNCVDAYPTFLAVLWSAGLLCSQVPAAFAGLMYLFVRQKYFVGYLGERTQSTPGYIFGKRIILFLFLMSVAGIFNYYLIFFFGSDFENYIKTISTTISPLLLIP

Row | Structure (SMILES) | Ki (human FLAP; [2]) | IC50 [1, 3] | Ki (human FLAP; [4]) | IC50 [1, 5] | IC50 ([1]; human whole blood diluted 1:1 in RPMI, A23187 stimulation, LTB4)
1 | Nc1cnc(-c2ccc(-c3ccccc3O)cc2F)cn1 [Example 476, 4′-(5-aminopyrazin-2-yl)-5′-fluorobiphenyl-2-ol] | 24.1 nM | 350 nM |  |  | 
2 | CC(C)(C)NS(=O)(=O)c1ccccc1-c1ccc(-c2cnc(N)c(Cl)n2)c(F)c1 [Example 441, 4′-(5-Amino-6-chloropyrazin-2-yl)-N-tert-butyl-3′-fluorobiphenyl-2-sulfonamide] | 0.8 nM | 6.5 nM |  |  | 
3 | Nc1cnc(-c2ccc(-c3ccccc3S(=O)(=O)C3CCCC3)cc2F)cn1 [Example 195, 5-[2′-(Cyclopentylsulfonyl)-3-fluorobiphenyl-4-yl]pyrazin-2-amine] |  |  | 2.3 nM | 69 nM | 
4 | NCCn1cc(-c2ccccc2-c2ccc(-c3cnc(N)cn3)c(F)c2)cn1 [Example 864, 5-{2′-[1-(2-Aminoethyl)-1H-pyrazol-4-yl]-3-fluorobiphenyl-4-yl]pyrazin-2-amine] | 216 nM | 413 nM |  |  | 
5 | Nc1cnc(-c2ccc(-c3ccccc3S(=O)(=O)N3CCC(O)CC3)cc2F)cn1 [Example 67, 1-{[4′-(5-Aminopyrazin-2-yl)-3′-fluorobiphenyl-2-yl]sulfonyl}piperidin-4-ol] |  |  | 4.2 nM | 16.8 nM | 
6 | CN1CCN(S(=O)(=O)c2cc(C(F)(F)F)ccc2-c2ccc(-c3cnc(N)cn3)c(F)c2)CC1 [Example 212, 5-{3-Fluoro-2′-[(4-methylpiperazin-1-yl)sulfonyl]-4′-(trifluoromethyl)biphenyl-4-yl}pyrazin-2-amine] |  |  | 0.8 nM | 5.3 nM | 
7 | CNc1ncc(-c2ccccc2-c2ccc(-c3cnc(N)cn3)c(F)c2)cn1 [Example 872, 5-[4′-(5-Aminopyrazin-2-yl)-3′-fluorobiphenyl-2-yl]-N-methylpyrimidin-2-amine] | 8.3 nM | 53 nM |  |  | 
8 | Nc1cnc(-c2ccc(-c3ccccc3-c3cnc(N4CCNCC4)nc3)cc2F)cn1 [Example 862, 5-[3-Fluoro-2′-(2-piperazin-1-ylpyrimidin-5-yl)biphenyl-4-yl]pyrazin-2-amine] | 122 nM | 121 nM |  |  | 
9 | CNc1ncc(-c2ccccc2-c2ccc(-c3cnc(N)nc3)c(F)c2)cn1 [Example 866, 5-[4′-(2-Aminopyrimidin-5-yl)-3′-fluorobiphenyl-2-yl]-N-methylpyrimidin-2-amine] | 170 nM | 539 nM |  |  | 
10 | CC(=O)N1CCC(S(=O)(=O)c2ncccc2-c2ccc(-c3cnc(N)cn3)c(F)c2)CC1 [Example 816, 1-((3-(4-(2-Aminopyrazin-5-yl)-3-fluorophenyl)pyridine-2-yl)sulfonyl)piperidin-1-yl)ethanone hydrogen chloride salt] | 37 nM | 61 nM |  |  | 
11 | Nc1ncc(-c2ccc(-c3ccc(C(F)(F)F)cc3C(=O)N3CCOCC3)cc2F)cn1 [Example 522, 5-[3-Fluoro-2′-(morpholin-4-ylcarbonyl)-4′-(trifluoromethyl)biphenyl-4-yl]pyrimidin-2-amine] | 286 nM | 264 nM |  |  | 
12 | COCCn1cc(-c2ccccc2-c2ccc(-c3cnc(N)cn3)c(F)c2)cn1 [Example 869, 5-{3-Fluoro-2′-[1-(2-methoxyethyl)-1H-pyrazol-4-yl]biphenyl-4-yl}pyrazin-2-amine] | 141 nM | 844 nM |  |  | 
13 | CC(C)(C)NS(=O)(=O)c1ccccc1-c1ccc(-c2cnc3[nH]ccc3c2)c(F)c1 [Example 367, N-tert-Butyl-3′-fluoro-4′-(1H-pyrrolo[2,3-b]pyridin-5-yl)biphenyl-2-sulfonamide] |  |  | 0.9 nM | 5.6 nM | 
14 | CCCCCCS(=O)(=O)c1ccccc1-c1ccc(-c2cnc(N)cn2)c(F)c1 [Example 198, 5-[3-Fluoro-2′-(hexylsulfonyl)biphenyl-4-yl]pyrazin-2-amine] |  |  | 72.1 nM | 819 nM | 
15 | Nc1cnc(-c2ccc(-c3ccccc3S(=O)(=O)N3CCC(CO)CC3)cc2F)cn1 [Example 68, (1-{[4′-(5-Aminopyrazin-2-yl)-3′-fluorobiphenyl-2-yl]sulfonyl}piperidin-4-yl)methanol] |  |  | 1.1 nM | 10.9 nM | 
16 | Nc1cnc(-c2ccc(-c3ccccc3S(=O)(=O)N3CCCCC3)cc2F)cn1 [Example 43, 5-[3-fluoro-2′-(piperidin-1-ylsulfonyl)biphenyl-4-yl]pyrazin-2-amine] |  |  | 3 nM | 38.1 nM | 
17 | Nc1cnc(-c2ccc(-c3ccccc3-c3cn[nH]c3)cc2F)cn1 [Example 870, 5-[3-Fluoro-2′-(1H-pyrazol-4-yl)biphenyl-4-yl]pyrazin-2-amine] | 14.3 nM | 86.7 nM |  |  | 
18 | Nc1cnc(-c2ccc(-c3ccccc3S(=O)(=O)N3CCC[C@@H]3CO)cc2F)cn1 [Example 91, (R)-(1-((4′-(5-aminopyrazin-2-yl)-3′-fluoro-[1,1′-biphenyl]-2-yl)sulfonyl)pyrrolidin-2-yl)methanol] |  |  | 4.7 nM | 38.3 nM | 
19 | N#Cc1ncc(-c2ccccc2-c2ccc(-c3cnc(N)cn3)c(F)c2)cn1 [Example 849, 5-[4′-(5-Aminopyrazin-2-yl)-3′-fluorobiphenyl-2-yl]pyrimidine-2-carbonitrile] | 38.3 nM | 3900 nM |  |  | 
20 | CC(C)c1ccccc1-c1ccc(-c2cnc(N)cn2)c(F)c1 [Example 482, 5-[3-Fluoro-2′-(1-methylethyl)biphenyl-4-yl]pyrazin-2-amine] | 60.9 nM | 320 nM |  |  | 
21 | Nc1cnc(-c2ccc(-c3ccccc3S(=O)(=O)NCC3(O)CNC3)cc2F)cn1 [Example 664] |  | > 1000 nM |  |  | > 1000 nM
22 | C[C@H](O)CNS(=O)(=O)c1ccccc1-c1ccc(-c2cnc(N)nc2)c(F)c1 [Example 279, 4′-(2-Aminopyrimidin-5-yl)-3′-fluoro-N-[(2S)-2-hydroxypropyl]biphenyl-2-sulfonamide trifluoroacetic acid salt] |  |  |  | 118 nM | 

Next, values leading:

Row | Ki (human FLAP; [2]) | IC50 [1, 3] | Ki (human FLAP; [4]) | IC50 [1, 5] | IC50 ([1]; human whole blood diluted 1:1 in RPMI, A23187 stimulation, LTB4) | Structure (SMILES)
23 | 57.9 nM | 52.9 nM |  |  |  | CC(O)CN1CCC(S(=O)(=O)c2ncccc2-c2ccc(-c3cnc(N)cn3)c(F)c2)CC1 (racemic) [Example 905, 1-[4-({3-[4-(5-Aminopyrazin-2-yl)-3-fluorophenyl]pyridin-2-yl}sulfonyl)piperidin-1-yl]propan-2-ol]
24 | 30.4 nM | > 1000 nM |  |  |  | Nc1ncc(-c2ccc(-c3ccccc3OCc3ccc(C(=O)O)cc3)cc2F)cn1 [Example 887, 4-({[4′-(2-Aminopyrimidin-5-yl)-3′-fluorobiphenyl-2-yl]oxy}methyl)benzoic acid]
25 | 0.3 nM | 2 nM |  |  |  | Nc1cnc(-c2ccc(-c3ccc(C(F)(F)F)nc3S(=O)(=O)C3CCOCC3)cc2F)cn1 [Example 906, 5-{2-Fluoro-4-[2-(tetrahydro-2H-pyran-4-ylsulfonyl)-6-(trifluoromethyl)pyridin-3-yl]phenyl}pyrazin-2-amine]
26 | 7 nM | 90.3 nM |  |  |  | Nc1cnc(-c2ccc(-c3cccnc3S(=O)(=O)c3ccccc3)cc2F)cn1 [Example 897, 5-{2-Fluoro-4-[2-(phenylsulfonyl)pyridin-3-yl]phenyl}pyrazin-2-amine]
27 | 76 nM | 128 nM |  |  |  | C[C@H](CO)NS(=O)(=O)c1ccccc1-c1cnc(-c2cnc(N)nc2)c(F)c1 [Example 881, 2-[6-(2-Aminopyrimidin-5-yl)-5-fluoropyridin-a-yl]-N-[(1R)-2-hydroxy-1-methylethyl]benzenesulfonamide]
28 | 77 nM | 87.3 nM |  |  |  | Nc1cnc(-c2ccc(-c3cccnc3S(=O)(=O)c3cccnc3)cc2F)cn1 [Example 899, 5-{2-Fluoro-4-[2-(pyridin-3-ylsulfonyl)pyridin-3-yl]phenyl}pyrazin-2-amine]
29 | 3.7 nM | 62.3 nM |  |  |  | NC(=O)c1ccc(Oc2ccccc2-c2ccc(-c3cnc(N)nc3)c(F)c2)cc1 [Example 890, 4-{[4′-(2-Aminopyrimidin-5-yl)-3′-fluorobiphenyl-2-yl]oxy)benzamide]
30 | 170 nM | 851 nM |  |  |  | N#CCn1cc(-c2ccccc2-c2ccc(-c3cnc(N)nc3)c(F)c2)cn1 [Example 875, {4-[4′-(2-Aminopyrimidin.-5-yl)-3′-fluorobiphenyl-2-yl]-1H-pyrazol-yl}acetonitrile]
31 | 276 nM | 320 nM |  |  |  | Nc1ncc(-c2ncc(-c3ccccc3S(=O)(=O)C3CC3)cc2F)cn1 [Example 878, 5-{5-[2-(Cyclopropylsulfonyl)phenyl]-3-fluoropyridin-2-yl}pyrimidin-2-amine]
32 | 86.7 nM | 180 nM |  |  |  | C[C@@H](CO)NS(=O)(=O)c1ccccc1-c1cnc(-c2cnc(N)nc2)c(F)c1 [Example 880, 2-[6-(2-Aminopyrimidin-5-yl)-5-fluoropyridin-3-yl]-N-[(1S)-2-hydroxy-1-methylethyl]benzenesulfonamide]
33 | 18.4 nM | 88.6 nM |  |  |  | CC(C)S(=O)(=O)c1nc(C(F)(F)F)ccc1-c1ccc(-c2cnc(N)nc2)c(F)c1 [Example 902, 5-(2-Fluoro-4-{2-[(1-methylethyl)sulfonyl]-6-(trifluoromethyl)pyridin-3-yl}phenyl)pyrimidin-2-amine]
34 | 13.2 nM | 222 nM |  |  |  | Nc1ncc(-c2ccc(-c3cccnc3Oc3ccccc3)cc2F)cn1 [Example 895, 5-[2-Fluoro-4-(2-phenoxypyridin-3-yl)phenyl]pyrimidin-2-amine]
